Test results as given in ChEMBL document CHEMBL4507273 (2021).

Tests used:
[1] = molecular target: Serine/threonine-protein kinase 35 (Homo sapiens) (UniProt Q8TDR2); conditions: Compound concentration 1000.0 nM
[2] = molecular target: Platelet-derived growth factor receptor alpha (Homo sapiens) (UniProt P16234); conditions: Compound concentration 1000.0 nM
[3] = molecular target: Cytoplasmic tyrosine-protein kinase BMX (Homo sapiens) (UniProt P51813); conditions: Compound concentration 1000.0 nM
[4] = tested on: Tyrosine-protein kinase ABL1 (Homo sapiens), P00519 [E255K]; conditions: Compound concentration 1000.0 nM
[5] = molecular target: Phosphatidylinositol 4-phosphate 5-kinase type-1 gamma (Homo sapiens) (UniProt O60331); conditions: Compound concentration 1000.0 nM
[6] = molecular target: Wee1-like protein kinase (Homo sapiens) (UniProt P30291); conditions: Compound concentration 1000.0 nM
[7] = tested on: Tyrosine-protein kinase ABL1 (Homo sapiens), P00519 [T315I]; conditions: Compound concentration 1000.0 nM
[8] = molecular target: Ephrin type-A receptor 7 (Homo sapiens) (UniProt Q15375); conditions: Compound concentration 1000.0 nM
[9] = molecular target: Ankyrin repeat and protein kinase domain-containing protein 1 (Homo sapiens) (UniProt Q8NFD2); conditions: Compound concentration 1000.0 nM
[10] = molecular target: T1, Alpha-1A adrenergic receptor (Homo sapiens) (UniProt P35348); conditions: Compound concentration 10.0 uM
T1 sequence (whole entry): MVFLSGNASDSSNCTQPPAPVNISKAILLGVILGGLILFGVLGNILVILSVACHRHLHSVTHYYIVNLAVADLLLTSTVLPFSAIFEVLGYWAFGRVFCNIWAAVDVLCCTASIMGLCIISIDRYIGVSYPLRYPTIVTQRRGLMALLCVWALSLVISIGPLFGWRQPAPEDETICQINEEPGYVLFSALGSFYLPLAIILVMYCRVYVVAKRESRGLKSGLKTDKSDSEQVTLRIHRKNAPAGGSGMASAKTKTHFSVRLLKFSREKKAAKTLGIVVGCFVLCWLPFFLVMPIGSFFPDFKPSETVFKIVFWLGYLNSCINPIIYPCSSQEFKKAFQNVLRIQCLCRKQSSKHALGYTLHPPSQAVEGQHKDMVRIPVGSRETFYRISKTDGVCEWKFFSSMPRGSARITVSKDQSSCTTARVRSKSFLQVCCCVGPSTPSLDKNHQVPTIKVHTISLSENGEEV

[11] = molecular target: Mitogen-activated protein kinase 11 (Homo sapiens) (UniProt Q15759); conditions: Compound concentration 1000.0 nM
[12] = molecular target: Wee1-like protein kinase 2 (Homo sapiens) (UniProt P0C1S8); conditions: Compound concentration 1000.0 nM
[13] = molecular target: Serine/threonine-protein kinase NIM1 (Homo sapiens) (UniProt Q8IY84); conditions: Compound concentration 1000.0 nM
[14] = molecular target: Ribosomal protein S6 kinase alpha-2 (Homo sapiens) (UniProt Q15349); conditions: Compound concentration 1000.0 nM
[15] = molecular target: Serine/threonine-protein kinase PAK 5 (Homo sapiens) (UniProt Q9P286); conditions: Compound concentration 1000.0 nM
[16] = molecular target: Phosphatidylinositol 5-phosphate 4-kinase type-2 beta (Homo sapiens) (UniProt P78356); conditions: Compound concentration 1000.0 nM
[17] = molecular target: Aurora kinase B (Homo sapiens) (UniProt Q96GD4); conditions: Compound concentration 1000.0 nM
[18] = molecular target: Insulin receptor (Homo sapiens) (UniProt P06213); conditions: Compound concentration 1000.0 nM
[19] = molecular target: Sodium-dependent dopamine transporter (Homo sapiens, UniProt Q01959); assay: GPCRScan assay: inhibition of DAT; parameters: radioligand conc. used [nm] 3.6 – 16.0, parental cells stable HEK
[20] = tested on: Epidermal growth factor receptor (Homo sapiens), P00533 [UNDEFINED MUTATION]; conditions: Compound concentration 1000.0 nM
[21] = molecular target: Vascular endothelial growth factor receptor 3 (Homo sapiens) (UniProt P35916); conditions: Compound concentration 1000.0 nM
[22] = tested on: Epidermal growth factor receptor (Homo sapiens), P00533 [L858R,T790M]; conditions: Compound concentration 1000.0 nM
[23] = molecular target: Bone morphogenetic protein receptor type-2 (Homo sapiens) (UniProt Q13873); conditions: Compound concentration 1000.0 nM
[24] = tested on: Epidermal growth factor receptor (Homo sapiens), P00533 [G719S]; conditions: Compound concentration 1000.0 nM
[25] = tested on: Hepatocyte growth factor receptor (Homo sapiens), P08581 [M1250T]; conditions: Compound concentration 1000.0 nM
[26] = molecular target: Mitogen-activated protein kinase 9 (Homo sapiens) (UniProt P45984); conditions: Compound concentration 1000.0 nM
[27] = molecular target: Serine/threonine-protein kinase Nek7 (Homo sapiens) (UniProt Q8TDX7); conditions: Compound concentration 1000.0 nM
[28] = molecular target: Cyclin-dependent kinase-like 2 (Homo sapiens) (UniProt Q92772); conditions: Compound concentration 1000.0 nM
[29] = molecular target: Serine/threonine-protein kinase Nek11 (Homo sapiens) (UniProt Q8NG66); conditions: Compound concentration 1000.0 nM
[30] = molecular target: RAF proto-oncogene serine/threonine-protein kinase (Homo sapiens) (UniProt P04049); conditions: Compound concentration 1000.0 nM
[31] = molecular target: Receptor tyrosine-protein kinase erbB-2 (Homo sapiens) (UniProt P04626); conditions: Compound concentration 1000.0 nM
[32] = tested on: Receptor-type tyrosine-protein kinase FLT3 (Homo sapiens), P36888 [N841I]; conditions: Compound concentration 1000.0 nM
[33] = molecular target: Serine/threonine-protein kinase 24 (Homo sapiens) (UniProt Q9Y6E0); conditions: Compound concentration 1000.0 nM
[34] = molecular target: Non-receptor tyrosine-protein kinase TYK2 (Homo sapiens) (UniProt P29597); conditions: Compound concentration 1000.0 nM
[35] = molecular target: Serine/threonine-protein kinase LATS1 (Homo sapiens) (UniProt O95835); conditions: Compound concentration 1000.0 nM
[36] = molecular target: Phosphatidylinositol 4,5-bisphosphate 3-kinase catalytic subunit beta isoform (Homo sapiens) (UniProt P42338); conditions: Compound concentration 1000.0 nM
[37] = molecular target: Cyclin-dependent kinase 11B (Homo sapiens) (UniProt P21127); conditions: Compound concentration 1000.0 nM
[38] = molecular target: Mitogen-activated protein kinase kinase kinase 10 (Homo sapiens) (UniProt Q02779); conditions: Compound concentration 1000.0 nM
[39] = molecular target: Ephrin type-B receptor 4 (Homo sapiens) (UniProt P54760); conditions: Compound concentration 1000.0 nM
Chain of Ephrin type-B receptor 4 (Homo sapiens) (P54760 whole entry): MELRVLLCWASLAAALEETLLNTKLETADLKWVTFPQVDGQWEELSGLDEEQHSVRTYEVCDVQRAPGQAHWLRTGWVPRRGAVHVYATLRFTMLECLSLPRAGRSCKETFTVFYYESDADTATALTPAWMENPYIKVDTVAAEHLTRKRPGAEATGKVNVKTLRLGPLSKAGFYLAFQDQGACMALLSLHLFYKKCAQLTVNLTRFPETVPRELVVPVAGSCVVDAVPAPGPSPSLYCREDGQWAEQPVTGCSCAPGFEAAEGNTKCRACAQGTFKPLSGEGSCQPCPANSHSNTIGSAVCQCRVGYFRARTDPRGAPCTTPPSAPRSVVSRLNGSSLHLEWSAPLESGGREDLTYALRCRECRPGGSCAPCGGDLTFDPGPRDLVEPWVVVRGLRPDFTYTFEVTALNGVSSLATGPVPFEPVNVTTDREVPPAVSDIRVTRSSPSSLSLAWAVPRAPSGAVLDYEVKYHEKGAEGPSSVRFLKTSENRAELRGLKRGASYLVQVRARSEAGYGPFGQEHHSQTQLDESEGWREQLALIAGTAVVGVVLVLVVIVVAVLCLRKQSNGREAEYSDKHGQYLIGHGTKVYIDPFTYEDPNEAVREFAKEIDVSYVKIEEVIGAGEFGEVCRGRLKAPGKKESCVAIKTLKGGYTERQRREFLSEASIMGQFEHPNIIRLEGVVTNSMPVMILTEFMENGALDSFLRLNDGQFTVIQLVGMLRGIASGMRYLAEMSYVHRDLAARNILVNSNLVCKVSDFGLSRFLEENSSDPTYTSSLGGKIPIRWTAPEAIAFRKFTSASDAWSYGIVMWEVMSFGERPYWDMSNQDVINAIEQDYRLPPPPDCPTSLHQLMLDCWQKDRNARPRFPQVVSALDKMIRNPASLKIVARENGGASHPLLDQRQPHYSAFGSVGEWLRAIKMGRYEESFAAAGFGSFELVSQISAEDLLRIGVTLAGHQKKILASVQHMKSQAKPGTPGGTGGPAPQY

Chain of Sodium-dependent dopamine transporter (Q01959 whole entry): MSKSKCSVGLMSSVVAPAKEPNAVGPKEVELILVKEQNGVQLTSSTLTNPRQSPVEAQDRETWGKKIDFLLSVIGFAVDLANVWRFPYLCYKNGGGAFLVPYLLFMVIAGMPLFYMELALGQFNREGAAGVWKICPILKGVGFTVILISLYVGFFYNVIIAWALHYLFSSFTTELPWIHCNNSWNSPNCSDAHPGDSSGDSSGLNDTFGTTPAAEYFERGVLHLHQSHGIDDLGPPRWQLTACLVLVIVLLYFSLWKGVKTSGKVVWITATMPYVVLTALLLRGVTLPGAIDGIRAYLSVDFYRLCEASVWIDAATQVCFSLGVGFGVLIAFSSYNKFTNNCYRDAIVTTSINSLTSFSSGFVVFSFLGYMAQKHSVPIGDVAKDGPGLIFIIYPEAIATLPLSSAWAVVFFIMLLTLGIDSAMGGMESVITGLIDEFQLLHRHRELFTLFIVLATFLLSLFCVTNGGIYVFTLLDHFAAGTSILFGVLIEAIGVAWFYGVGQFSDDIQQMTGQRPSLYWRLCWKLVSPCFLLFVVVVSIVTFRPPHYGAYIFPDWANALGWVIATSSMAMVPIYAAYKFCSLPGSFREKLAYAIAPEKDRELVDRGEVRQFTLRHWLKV
Chain of Wee1-like protein kinase 2 (Homo sapiens) (P0C1S8 whole entry, looked up): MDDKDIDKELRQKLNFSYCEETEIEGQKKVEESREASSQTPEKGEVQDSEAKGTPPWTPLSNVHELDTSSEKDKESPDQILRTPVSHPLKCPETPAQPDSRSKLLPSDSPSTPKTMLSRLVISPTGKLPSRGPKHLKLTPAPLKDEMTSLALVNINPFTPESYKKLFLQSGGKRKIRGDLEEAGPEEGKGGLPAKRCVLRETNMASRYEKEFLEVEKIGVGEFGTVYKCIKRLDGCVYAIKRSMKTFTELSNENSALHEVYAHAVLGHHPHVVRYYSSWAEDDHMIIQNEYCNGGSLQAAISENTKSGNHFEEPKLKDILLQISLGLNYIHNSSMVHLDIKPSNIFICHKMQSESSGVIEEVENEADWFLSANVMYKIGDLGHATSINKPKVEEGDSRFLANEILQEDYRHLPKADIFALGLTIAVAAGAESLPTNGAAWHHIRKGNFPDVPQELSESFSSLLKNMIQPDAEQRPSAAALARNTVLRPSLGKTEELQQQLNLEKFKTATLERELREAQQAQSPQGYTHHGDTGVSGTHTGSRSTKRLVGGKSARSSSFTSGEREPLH
Chain of RAF proto-oncogene serine/threonine-protein kinase (Homo sapiens) (P04049 whole entry): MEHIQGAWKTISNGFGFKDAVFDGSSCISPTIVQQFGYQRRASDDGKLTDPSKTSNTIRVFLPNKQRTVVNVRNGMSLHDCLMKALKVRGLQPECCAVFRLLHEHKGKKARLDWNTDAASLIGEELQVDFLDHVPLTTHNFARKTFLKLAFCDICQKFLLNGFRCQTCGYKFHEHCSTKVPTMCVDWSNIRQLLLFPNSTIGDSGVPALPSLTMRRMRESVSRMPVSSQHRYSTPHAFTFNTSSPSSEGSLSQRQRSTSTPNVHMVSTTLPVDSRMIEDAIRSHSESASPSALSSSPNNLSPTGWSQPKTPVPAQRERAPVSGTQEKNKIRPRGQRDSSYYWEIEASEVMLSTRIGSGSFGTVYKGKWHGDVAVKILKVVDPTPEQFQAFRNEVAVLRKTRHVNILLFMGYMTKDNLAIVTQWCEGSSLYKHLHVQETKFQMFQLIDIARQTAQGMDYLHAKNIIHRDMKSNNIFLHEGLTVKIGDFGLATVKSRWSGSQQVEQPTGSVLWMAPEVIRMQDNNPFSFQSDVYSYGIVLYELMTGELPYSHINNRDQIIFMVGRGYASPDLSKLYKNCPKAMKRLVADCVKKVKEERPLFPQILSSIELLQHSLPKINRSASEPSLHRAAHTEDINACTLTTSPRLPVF
Chain of Ribosomal protein S6 kinase alpha-2 (Homo sapiens) (Q15349 whole entry): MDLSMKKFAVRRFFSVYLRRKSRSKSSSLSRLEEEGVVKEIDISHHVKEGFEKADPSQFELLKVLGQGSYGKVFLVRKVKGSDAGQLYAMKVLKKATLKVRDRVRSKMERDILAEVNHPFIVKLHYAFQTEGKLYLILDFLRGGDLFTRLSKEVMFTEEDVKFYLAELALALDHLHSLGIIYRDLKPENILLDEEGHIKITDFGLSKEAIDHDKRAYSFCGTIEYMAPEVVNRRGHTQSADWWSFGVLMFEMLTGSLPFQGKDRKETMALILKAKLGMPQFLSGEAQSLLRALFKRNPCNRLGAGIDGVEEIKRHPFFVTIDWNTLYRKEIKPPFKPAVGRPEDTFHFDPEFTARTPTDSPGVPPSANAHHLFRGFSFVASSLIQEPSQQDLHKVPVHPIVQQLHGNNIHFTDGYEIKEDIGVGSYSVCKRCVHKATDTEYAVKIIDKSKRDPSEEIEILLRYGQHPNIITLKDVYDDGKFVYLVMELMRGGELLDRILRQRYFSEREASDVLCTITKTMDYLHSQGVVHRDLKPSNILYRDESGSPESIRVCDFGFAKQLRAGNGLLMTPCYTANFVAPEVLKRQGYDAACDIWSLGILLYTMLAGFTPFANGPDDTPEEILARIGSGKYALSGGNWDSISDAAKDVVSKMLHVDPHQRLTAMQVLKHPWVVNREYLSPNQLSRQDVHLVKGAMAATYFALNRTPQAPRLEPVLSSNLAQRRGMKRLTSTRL
Chain of Cyclin-dependent kinase 11B (Homo sapiens) (P21127 whole entry): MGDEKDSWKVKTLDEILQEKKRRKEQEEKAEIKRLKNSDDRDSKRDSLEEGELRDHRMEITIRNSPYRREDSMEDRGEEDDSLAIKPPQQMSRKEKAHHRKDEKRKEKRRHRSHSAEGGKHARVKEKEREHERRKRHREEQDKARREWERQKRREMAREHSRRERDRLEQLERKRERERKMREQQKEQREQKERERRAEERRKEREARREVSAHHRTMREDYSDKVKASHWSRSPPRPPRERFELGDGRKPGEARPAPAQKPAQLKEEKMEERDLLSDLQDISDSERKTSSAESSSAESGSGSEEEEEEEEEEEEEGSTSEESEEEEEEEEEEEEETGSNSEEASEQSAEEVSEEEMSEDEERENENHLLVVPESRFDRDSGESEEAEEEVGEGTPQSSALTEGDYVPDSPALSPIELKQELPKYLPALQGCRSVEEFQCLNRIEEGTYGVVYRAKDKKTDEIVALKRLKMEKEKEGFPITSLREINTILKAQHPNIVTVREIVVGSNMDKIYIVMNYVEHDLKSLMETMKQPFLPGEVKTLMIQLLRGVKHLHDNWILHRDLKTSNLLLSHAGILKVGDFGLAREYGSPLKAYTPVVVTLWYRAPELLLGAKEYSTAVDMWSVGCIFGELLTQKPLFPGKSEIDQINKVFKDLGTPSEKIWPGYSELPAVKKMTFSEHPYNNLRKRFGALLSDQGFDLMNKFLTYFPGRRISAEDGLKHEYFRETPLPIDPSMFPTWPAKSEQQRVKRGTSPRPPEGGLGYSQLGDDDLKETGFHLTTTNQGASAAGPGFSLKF
Chain of Wee1-like protein kinase (Homo sapiens) (P30291 whole entry, looked up): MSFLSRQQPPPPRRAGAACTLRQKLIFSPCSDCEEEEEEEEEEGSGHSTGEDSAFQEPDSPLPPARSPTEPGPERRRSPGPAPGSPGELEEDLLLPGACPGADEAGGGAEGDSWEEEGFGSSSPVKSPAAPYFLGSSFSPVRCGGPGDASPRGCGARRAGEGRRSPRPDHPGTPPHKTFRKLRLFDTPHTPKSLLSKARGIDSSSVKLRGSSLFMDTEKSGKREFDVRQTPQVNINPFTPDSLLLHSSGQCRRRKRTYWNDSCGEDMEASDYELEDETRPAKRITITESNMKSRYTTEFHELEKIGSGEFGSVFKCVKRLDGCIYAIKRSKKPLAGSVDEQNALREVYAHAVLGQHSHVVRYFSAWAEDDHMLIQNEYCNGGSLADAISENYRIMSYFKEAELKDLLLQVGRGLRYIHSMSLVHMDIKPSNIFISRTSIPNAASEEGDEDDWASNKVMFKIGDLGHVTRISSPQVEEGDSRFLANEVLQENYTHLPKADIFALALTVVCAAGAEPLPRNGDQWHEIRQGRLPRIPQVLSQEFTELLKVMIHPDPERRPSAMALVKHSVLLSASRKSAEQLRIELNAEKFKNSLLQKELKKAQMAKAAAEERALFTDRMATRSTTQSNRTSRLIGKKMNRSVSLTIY

| SMILES | residual activity [1] | residual activity [2] | residual activity [3] | residual activity [4] | residual activity [5] | residual activity [6] | residual activity [7] | residual activity [8] | residual activity [9] | inhibition [10] | residual activity [11] | residual activity [12] | residual activity [13] | residual activity [14] | residual activity [15] | residual activity [16] | residual activity [17] | residual activity [18] | Ki ([19]; read-out: Ki) | Ki ([19]; read-out: pKi (converted)) | further results |
| --- | --- | --- | --- | --- | --- | --- | --- | --- | --- | --- | --- | --- | --- | --- | --- | --- | --- | --- | --- | --- | --- |
| CNCc1ccccc1-c1csc([C@H](C)Nc2nc(C)nc3cc(OC)c(OC)cc23)c1 [BAY-294] | 100% | 92% | 58% | 81% | 100% | 100% | 87% | 100% | 90% | 83.4% | 100% | 100% | 90% | 100% | 100% | 100% | 99% | 89% | 1670 nM | 1410 nM | residual activity [20]: 64%; residual activity [21]: 100%; residual activity [22]: 87%; residual activity [23]: 100%; residual activity [24]: 84%; residual activity [25]: 96%; residual activity [26]: 71%; residual activity [27]: 100%; residual activity [28]: 100%; residual activity [29]: 100%; residual activity [30]: 65%; residual activity [31]: 100%; residual activity [32]: 100%; residual activity [33]: 100%; residual activity [34]: 100%; residual activity [35]: 100%; residual activity [36]: 89%; residual activity [37]: 100%; residual activity [38]: 100%; residual activity [39]: 100% |
| CNCc1ccccc1-c1csc([C@@H](C)Nc2nc(C)nc3cc(OC)c(OC)cc23)c1 [BAY-293] | 91% | 84% | 49% | 75% | 88% | 100% | 83% | 100% | 76% | 71.6% | 86% | 100% | 93% | 100% | 95% | 100% | 77% | 79% | 522 nM | 479 nM | residual activity [20]: 50%; residual activity [21]: 83%; residual activity [22]: 93%; residual activity [23]: 100%; residual activity [24]: 69%; residual activity [25]: 79%; residual activity [26]: 71%; residual activity [27]: 100%; residual activity [28]: 99%; residual activity [29]: 100%; residual activity [30]: 70%; residual activity [31]: 84%; residual activity [32]: 77%; residual activity [33]: 100%; residual activity [34]: 99%; residual activity [35]: 100%; residual activity [36]: 96%; residual activity [37]: 100%; residual activity [38]: 96%; residual activity [39]: 99% |
